Patent publication EP0728012B1, “NOVEL GnRH ANALOGUES WITH ANTITUMOUR EFFECTS AND PHARMACEUTICAL COMPOSITIONS THEREOF” (Lovas, Sandor, priority 1994, dated 1996)
Like-named read-outs stand apart in the source and are kept apart here. Non-standard residues stand in square brackets, D forms with d. Residues, ends and D or L forms follow the SMILES beside them. pGlu = O=C1CC[C@@H](C(=O)O)N1

What was measured:
MCF-7 [1] = assay: Inhibition of colony formation by GnRH analogues (dose-survival, Example 48); assay type: cell-based, human; settings: treated once
Protocol: (§1) The examination gives accurate information about the cell-damaging effect of the substance tested as a function of varying doses. The treatment was carried out once; the colonies formed from the surviving cells were counted after 8 - 12 days. […] A part of the arrested cells again entered the cycle, another part of them might be destroyed (apoptosis). […] In the case of a dose-response investigation, colonies containing less than 15 cells were not counted. 300 cells were put into each Petri dishes of 3.5 cm in diameter. The treatment was once carried out 24 hours after setting, then the colonies formed were counted after 8 - 12 days. The cells were treated once after 24 hours with 1-50 µM of various GnRH analogues of Examples above or with 1 - 50 µM of GnRH-III, respectively. The percentages of inhibition obtained on MCF-7, MDA-MB-231, PC3 and Ishikawa cells, respectively, together with the dose of the active agent used are shown in Table VIII.

human tumour cell lines = assay: Inhibition of colony formation (Example 48), comparison with the control D-Trp^6-hGnRH; assay type: cell-based; settings: data of Table VIII
Protocol: as §1
In these studies the D-Trp^6-hGnRH analogue (Sigma Co.) commonly used in the tumour therapy was employed as control.

[2] = test system: Ishikawa human endometrium carcinoma cell line; assay: Inhibition of colony formation (dose-survival relation, Example 18); assay type: cell-based; settings: for % Inhibition of colony formation: 50 µM; for inhibition of colony formation: concentration not given
Protocol: (§2) In the case of cytostatics the cell-damaging effect is not cell-specific. […] One part of the arrested cells again go into the cycle, the other part may perish (apoptosis). […] The investigations were carried out on MCF-7 and MDA-MB-231 human mammary carcinoma cell lines, PC3 human prostate 15 carcinoma cell line and Ishikawa human endometrium carcinoma cell line. Three hundred cells were set into Petri dishes of 3.5 cm in diameter each. The treatment was carried out once, 24 hours following the explantation, then the colonies formed were counted after 9 to 12 days.

[3] = test system: MCF-7 human mammary carcinoma cell line; assay: as above; assay type: cell-based; settings: for % Inhibition of colony formation: 50 µM (active substance), treated once; for inhibition of colony formation: concentration not given
Protocol: as §2

[4] = test system: MDA-MB-231 human mammary carcinoma cell line; assay: as above; assay type: cell-based; settings: for % Inhibition of colony formation: 50 µM
Protocol: as §2

[5] = test system: PC3 human prostate carcinoma cell line; assay: as above; assay type: cell-based; settings: for inhibition of colony formation: concentration not given
Protocol: as §2

MCF-7 [6] = settings: for % Inhibition of cell division (proliferation): MCF-7, 30 µM active substance, conjugate, treated once, cell count on 7th day
Protocol: (§3) The procedure of treatment was as follows. After trypsinization the cells, 400,000 cells of MCF-7, MDA-MB-231 human mammary carcinoma, PC3 human prostate carcinoma or Ishikawa human endometrium tumour each were passed into Petri dishes of 10 cm in diameter. Starting from the day following transfer, the cells were treated with the substances to be tested in solution prepared with the nutrient medium during the exponential growth phase. […]

MDA-MB-231 [7] = settings: for % Inhibition of cell division (proliferation): MDA-MB-231, 30 µM active substance, conjugate, treated once
Protocol: as §3

MDA-MB-231 [8] = assay: Inhibition of colony formation by GnRH analogues (dose-survival, Example 48); assay type: cell-based, human
Protocol: as §1

Ishikawa = assay: as above; assay type: cell-based, human; settings: 50 µM
Protocol: as §1

PC3 [9] = assay: In vitro inhibition of cell proliferation (Example 19); assay type: cell-based, human; settings: 30 µM, peptide alone, two treatments on days 2 and 4
Protocol: The procedure of treatment was as follows. After trypsinization the cells, 400,000 cells of MCF-7, MDA-MB-231 human mammary carcinoma, PC3 human prostate carcinoma or Ishikawa human endometrium tumour each were passed into Petri dishes of 10 cm in diameter. Starting from the day following transfer, the cells were treated with the substances to be tested in solution prepared with the nutrient medium during the exponential growth phase. The cultures were treated with 1 to 50 µM (calculated for the total volume of the culture) or MI-1544 GnRH antagonist, MI-1892 chicken GnRH antagonist or SJ-1004 GnRH antagonist analogues as well as synthetic lamprey GnRH-III hormone every two days and the cell count was determined on the 7th day.

PC3 [10] = assay: Inhibition of colony formation by GnRH analogues (dose-survival, Example 48); assay type: cell-based, human; settings: for % Inhibition of the colony formation: 50 µM
Protocol: as §1

CC(C)C[C@H](NC(=O)[C@@H](Cc1c[nH]c2ccccc12)NC(=O)[C@H](Cc1ccc(O)cc1)NC(=O)[C@H](CO)NC(=O)[C@H](Cc1c[nH]c2ccccc12)NC(=O)[C@H](Cc1c[nH]cn1)NC(=O)[C@@H](N)CCC(=O)O)C(=O)N[C@@H](CCCNC(=N)N)C(=O)N1CCC[C@H]1C(=O)NCC(N)=O [19. H-Glu^1,D-Trp^6 - hGnRH, H-Glu^1,D-Trp^6-hGnRH]
% Inhibition of the colony formation (MCF-7 [1]; 10 µM): 16.8%
% Inhibition of the colony formation (MCF-7 [1]; 50 µM): 32.7%
inhibitory effect compared with the control D-Trp^6-hGnRH (human tumour cell lines): approximated the activity of the control

{Lys[n-poly(N-vinylpyrrolidone-co-maleic acid)-Gly-Phe-Leu-Gly-]}^5,cyclo(Asp^6-Lys^8)-GnRH-III [P-GFLG-Lys^5-cyclo(Asp^6,Lys^8)-GnRH-III]
% Inhibition of colony formation [2]: 19%
inhibition of colony formation [2]: 19%
% Inhibition of colony formation [3]: 78%
% Inhibition of colony formation [4]: 82%
% Inhibition of colony formation ([5]; 50 µM): 100%
inhibition of colony formation [5]: 100%

Ac-D-Trp^1,3,D-Cpa^2,{Lys[n-poly(N-vinylpyrrolidone-co-maleic acid)-Phe-Leu-Gly-]}^5,a-Asp (DEA)]^6,D-Ala^10-GnRH [P-FLG-1892]
% Inhibition of cell division (proliferation) (MCF-7 [6]; listed as 12. P-FLG-MI-1892): 33%
% Inhibition of cell division (proliferation) (MDA-MB-231 [7]; listed as 12. P-FLG-MI-1892): 35%

pGlu-His-Trp-Ser-Tyr-D-Trp-Leu-Arg-Pro-Gly-NH2 [D-Trp^6-hGnRH (Decapeptyl), reference compound]
% Inhibition of the colony formation (MCF-7 [1]; 10 µM): 17.1%
% Inhibition of the colony formation (MCF-7 [1]; 50 µM): 36.7%
% Inhibition of the colony formation (MDA-MB-231 [8]; 10 µM): 15.7%
% Inhibition of the colony formation (MDA-MB-231 [8]; 50 µM): 38.7%

NCCCC[C@H](NC(=O)[C@H](Cc1cn(C=O)c2ccccc12)NC(=O)[C@H](CC(=O)O)NC(=O)[C@H](Cc1c[nH]cn1)NC(=O)[C@H](CO)NC(=O)[C@H](Cc1cn(C=O)c2ccccc12)NC(=O)[C@H](Cc1c[nH]cn1)NC(=O)[C@@H]1CCC(=O)N1)C(=O)N1CCC[C@H]1C(=O)NCC(N)=O [14. [Trp(For-Ind)]^3,7- -GnRH-III, [Trp(For-Ind)]^3,7-GnRH-III]
% Inhibition of the colony formation (Ishikawa): 24%
% Inhibition of the colony formation (MCF-7 [1]; 50 µM): 31%
inhibitory effect compared with the control D-Trp^6-hGnRH (human tumour cell lines): approximated the activity of the control

CC(C)C[C@H](NC(=O)[C@@H](CCCCN)NC(=O)[C@H](Cc1ccc(O)cc1)NC(=O)[C@H](CO)NC(=O)[C@@H](Cc1c[nH]c2ccccc12)NC(=O)[C@@H](Cc1ccccc1)NC(=O)[C@@H]1CCC(=O)N1)C(=O)N[C@@H](CCCNC(=N)N)C(=O)N1CCC[C@H]1C(=O)NCC(N)=O [SJ-1004, D-Phe^2,D-Trp^3,D-Lys^6-hGnRH, reference compound] ([pGlu][dF][dW]SY[dK]LRPG-NH2)
% Inhibition of colony formation [2]: 5%
% Inhibition of colony formation [3]: 31%
% Inhibition of colony formation [4]: 26%
% Inhibition of colony formation ([5]; 50 µM): 0%
inhibition of proliferation (decrease in cell count) (MCF-7 [6]; MCF-7 (10% FCS), 30 µM, peptide alone, treated every two days (two treatments, days 2 and 4)): 17%
inhibition of proliferation (decrease in cell count) (MDA-MB-231 [7]; MDA-MB-231 (10% FCS), 30 µM, peptide alone, treated every two days (two treatments)): 23%
inhibition of proliferation (PC3 [9]): 10%

NCCCC[C@H](NC(=O)[C@H](Cc1ccccc1)NC(=O)[C@H](CC(=O)O)NC(=O)[C@H](Cc1c[nH]cn1)NC(=O)[C@H](CO)NC(=O)[C@H](Cc1c[nH]c2ccccc12)NC(=O)[C@H](Cc1c[nH]cn1)NC(=O)[C@@H]1CCC(=O)N1)C(=O)N1CCC[C@H]1C(=O)NCC(N)=O [15. Phe^7 -GnRH-III, Phe^7-GnRH-III]
% Inhibition of the colony formation (MCF-7 [1]; 50 µM): 26%
% Inhibition of the colony formation (MDA-MB-231 [8]; 50 µM): 21%
inhibitory effect compared with the control D-Trp^6-hGnRH (human tumour cell lines): a weak if any effect

NCCCC[C@H](NC(=O)[C@H](Cc1c[nH]c2ccccc12)NC(=O)[C@H](CC(=O)O)NC(=O)[C@H](CCCCNC(=O)OCC1c2ccccc2-c2ccccc21)NC(=O)[C@H](CO)NC(=O)[C@H](Cc1c[nH]c2ccccc12)NC(=O)[C@H](Cc1c[nH]cn1)NC(=O)[C@@H]1CCC(=O)N1)C(=O)N1CCC[C@H]1C(=O)NCC(N)=O [Example 26, [Lys(εFmoc)]^5-GnRH-III]
inhibitory effect compared with the control D-Trp^6-hGnRH (human tumour cell lines): a weak if any effect

NCCCC[C@H](NC(=O)[C@H](CO)NC(=O)[C@H](Cc1c[nH]c2ccccc12)NC(=O)[C@H](Cc1c[nH]cn1)NC(=O)[C@@H]1CCC(=O)N1)C(=O)N[C@H]1CC(=O)NCCCC[C@@H](C(=O)N2CCC[C@H]2C(=O)NCC(N)=O)NC(=O)[C@H](Cc2c[nH]c3ccccc23)NC1=O [Lys^5, cyclo[Asp^6-Lys^8]-GnRH-III]
inhibition of colony formation [2]: 13%
inhibition of colony formation [3]: 44%
% Inhibition of the colony formation (Ishikawa): 13%
% Inhibition of the colony formation (MCF-7 [1]; 50 µM): 44%
inhibitory effect compared with the control D-Trp^6-hGnRH (human tumour cell lines): exceeded the inhibitory effect of control

CC(C)C[C@H](NC(=O)[C@@H](Cc1c[nH]c2ccccc12)NC(=O)[C@H](CCCCN)NC(=O)[C@H](CO)NC(=O)[C@H](Cc1c[nH]c2ccccc12)NC(=O)[C@H](Cc1c[nH]cn1)NC(=O)[C@@H]1CCC(=O)N1)C(=O)N[C@@H](CCCNC(=N)N)C(=O)N1CCC[C@H]1C(=O)NCC(N)=O [17. Lys^5-DTrp^6-hGnRH, Lys^5,D-Trp^6-hGnRH] ([pGlu]HWSK[dW]LRPG-NH2)
% Inhibition of the colony formation (Ishikawa): 17%
% Inhibition of the colony formation (Ishikawa; listed as compound 17, 50 µM): 15%
% Inhibition of the colony formation (MCF-7 [1]; 10 µM): 39%
% Inhibition of the colony formation (MCF-7 [1]; 50 µM): 65%
% Inhibition of the colony formation (MDA-MB-231 [8]; 10 µM): 30%
% Inhibition of the colony formation (MDA-MB-231 [8]; 50 µM): 63%
% Inhibition of the colony formation (PC3 [10]): 18%
inhibition of colony formation (PC3 [10]; within the dose range used (1-50 µM)): weakly inhibited
inhibitory effect compared with the control D-Trp^6-hGnRH (human tumour cell lines): a twice stronger inhibition

{Lys[n-poly(N-vinylpyrrolidone-co-maleic acid)-Gly-Phe-Leu-Gly-]}^4,-GnRH-III [P-GFLG-Lys^4-GnRH-III]
% Inhibition of colony formation [2]: 25%
inhibition of colony formation [2]: 25%
% Inhibition of colony formation [3]: 68%
inhibition of colony formation [3]: 68%
% Inhibition of colony formation [4]: 75%
inhibition of colony formation ([4]; concentration not given): 75%
% Inhibition of colony formation ([5]; 30 µM): 94%
inhibition of colony formation [5]: 94%

NCCCC[C@H](NC(=O)[C@H](Cc1c[nH]c2ccccc12)NC(=O)[C@H](CCC(=O)O)NC(=O)[C@H](Cc1c[nH]cn1)NC(=O)[C@H](CO)NC(=O)[C@H](Cc1c[nH]c2ccccc12)NC(=O)[C@H](Cc1c[nH]cn1)NC(=O)[C@@H]1CCC(=O)N1)C(=O)N1CCC[C@H]1C(=O)NCC(N)=O [8. Glu^6-GnRH-III, Glu^6-GnRH-III]
% Inhibition of the colony formation (Ishikawa): 2%
% Inhibition of the colony formation (MCF-7 [1]; 50 µM): 44%
% Inhibition of the colony formation (MDA-MB-231 [8]; 50 µM): 25%
% Inhibition of the colony formation (PC3 [10]): 31%
inhibitory effect compared with the control D-Trp^6-hGnRH (human tumour cell lines): exceeded the inhibitory effect of control

NCCCC[C@H](NC(=O)[C@H](CO)NC(=O)[C@H](Cc1c[nH]c2ccccc12)NC(=O)[C@H](Cc1c[nH]cn1)NC(=O)[C@@H]1CCC(=O)N1)C(=O)N[C@@H](CC(=O)O)C(=O)N[C@@H](Cc1c[nH]c2ccccc12)C(=O)N[C@@H](CCCCN)C(=O)N1CCC[C@H]1C(=O)NCC(N)=O [2. Lys^5-GnRH-III, Lys^5-GnRH-III]
% Inhibition of the colony formation (MCF-7 [1]; 50 µM): 0%
% Inhibition of the colony formation (MDA-MB-231 [8]; 50 µM): 0%

Ac-D-Trip^1,3,D-Cpa^2,{Lys[n-poly(N-vinylpyrrolidone-co-maleic acid)-Gly-Leu-Gly-]}^5,[a-Asp(DEA)]^6, D-Ala^10-GnRH [P-GLG-1892]
% Inhibition of cell division (proliferation) (MCF-7 [6]; listed as 13. P-GLG-MI-1892): 33%
% Inhibition of cell division (proliferation) (MDA-MB-231 [7]; listed as 13. P-GLG-MI-1892): 35%
